Experiment [1] concerns the target recombinant human FLAP protein (Homo sapiens (Human), UniProt P20292). Nature of the experiment: FLAP binding assay (Scintillation Proximity Assay, displacement of [125I]L-691,831). To be noted: read-out: FLAP SPA IC50. The method in brief: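 Scintillation proximity displacement of an iodinated (125I) FLAP inhibitor by test compounds, using 100,000×g membrane fraction from lysed cells. Final beads 200 μg/well and protein 5 μg/well; plates shaken 2 h before reading.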
(In general: In a scintillation proximity assay essentially only radioactivity close to the scintillant gives light.)

For experiment [2], the system named is synthesis of LTB4 in human whole blood. Nature of the experiment: Human whole blood LTB4 production inhibition assay. Format: cell-based. The conditions noted are these: calcimycin stimulated, read-out: hWB LTB4 IC50. A digest of the protocol:
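Readout: plasma LTB4 by antibody-based HTRF. Compound added to heparinized human whole blood, 15 min 37° C; calcimycin 20 μM final (PBS pH 7.4), 30 min 37° C; spun 1500×g 5 min, plasma taken.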

Bounds are passed on as bounds.

recombinant human FLAP protein, sequence (P20292 whole entry): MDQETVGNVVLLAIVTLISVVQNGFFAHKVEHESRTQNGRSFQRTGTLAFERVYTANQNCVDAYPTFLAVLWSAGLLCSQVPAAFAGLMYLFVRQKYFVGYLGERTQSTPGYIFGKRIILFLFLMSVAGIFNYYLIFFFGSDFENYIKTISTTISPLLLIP

Broadly, the IC50 is the concentration needed to halve the response being measured. For the molecule `CNc1ncccc1-c1nc(C2(c3ccc(-c4cnc(N)nc4)nc3)CCC2)no1` [Example 122, 5-[5-(1-{5-[2-(methylamino)pyridin-3-yl]-1,2,4-oxadiazol-3-yl}cyclobutyl)pyridin-2-yl]pyrimidin-2-amine], the half-inhibitory concentration (IC50) amounted to 28 nM in experiment [1] and 3800 nM in experiment [2].

Take `Nc1ncc(-c2ccc(C3(c4noc(-c5cncs5)n4)CCC3)cn2)cn1` [Example 123, 5-(5-{1-[5-(1,3-thiazol-5-yl)-1,2,4-oxadiazol-3-yl]cyclobutyl}pyridin-2-yl)pyrimidin-2-amine]: the IC50 in experiment [1] stood at 31 nM; in experiment [2], 790 nM.

Regarding `Cn1nccc1-c1nc(C2(c3ccc(-c4cnc(N)nc4)nc3)CCC2)no1` [Example 124, 5-(5-{1-[5-(1-methyl-1H-pyrazol-5-yl)-1,2,4-oxadiazol-3-yl]cyclobutyl}pyridin-2-yl)pyrimidin-2-amine], the IC50 stood at 11 nM in experiment [1] and 210 nM in experiment [2].

Turning to `Nc1ncc(-c2ccc(C3(c4noc(-c5ccc(N6CCNC(=O)C6)nc5)n4)CCC3)cn2)cn1` [Example 125, 4-[5-(3-{1-[6-(2-aminopyrimidin-5-yl)pyridin-3-yl]cyclobutyl}-1,2,4-oxadiazol-5-yl)pyridin-2-yl]piperazin-2-one], the IC50 in experiment [1] worked out at 1.8 nM; in experiment [2] it was 160 nM.

As to `CN(C)c1ncccc1-c1nc(C2(c3ccc(-c4cnc(N)nc4)nc3)CCC2)no1` [Example 126, 5-[5-(1-{5-[2-(dimethylamino)pyridin-3-yl]-1,2,4-oxadiazol-3-yl}cyclobutyl)pyridin-2-yl]pyrimidin-2-amine], the figures for the IC50 in experiment [1] and in experiment [2] were 34 nM and > 5000 nM, respectively.

Turning to `Cn1ccc(-c2nc(C3(c4ccc(-c5cnc(N)nc5)nc4)CCC3)no2)n1` [Example 127, 5-(5-{1-[5-(1-methyl-1H-pyrazol-3-yl)-1,2,4-oxadiazol-3-yl]cyclobutyl}pyridin-2-yl)pyrimidin-2-amine], the values for the IC50 in experiment [1] and in experiment [2] were 40 nM and 640 nM, respectively.

Turning to `Nc1ncc(-c2ccc(C3(c4noc(-c5cccnc5N5CCOCC5)n4)CCC3)cn2)cn1` [Example 128, 5-[5-(1-{5-[2-(morpholin-4-yl)pyridin-3-yl]-1,2,4-oxadiazol-3-yl}cyclobutyl)pyridin-2-yl]pyrimidin-2-amine], the IC50 in experiment [1] was 66 nM; in experiment [2], 2700 nM.

As for `Nc1ncc(-c2ccc(C3(c4noc(-c5cnccn5)n4)CCC3)cn2)cn1` [Example 129, 5-(5-{1-[5-(pyrazin-2-yl)-1,2,4-oxadiazol-3-yl]cyclobutyl}pyridin-2-yl)pyrimidin-2-amine], the figures for the IC50 in experiment [1] and in experiment [2] were 47 nM and 630 nM, respectively.

`Cc1cnc(-c2nc(C3(c4ccc(-c5cnc(N)nc5)nc4)CCC3)no2)cn1` [Example 130, 5-(5-{1-[5-(5-methylpyrazin-2-yl)-1,2,4-oxadiazol-3-yl]cyclobutyl}pyridin-2-yl)pyrimidin-2-amine]: the IC50 in experiment [1] came out at 26 nM; in experiment [2], 350 nM.

`Cn1cnc(-c2nc(C3(c4ccc(-c5cnc(N)nc5)nc4)CCC3)no2)c1` [Example 131, 5-(5-{1-[5-(1-methyl-1H-imidazol-4-yl)-1,2,4-oxadiazol-3-yl]cyclobutyl}pyridin-2-yl)pyrimidin-2-amine]: the IC50 in experiment [1] was 52 nM; in experiment [2] it was 300 nM.

Take `Nc1ncc(-c2ccc(C3(c4noc(-c5cn[nH]c5)n4)CCC3)nc2)cn1` [Example 132, 5-(6-{1-[5-(1H-pyrazol-4-yl)-1,2,4-oxadiazol-3-yl]cyclobutyl}pyridin-3-yl)pyrimidin-2-amine]: the IC50 in experiment [1] was determined as 46 nM; in experiment [2] it was 370 nM.

With `Cc1cc(-c2nc(C3(c4ccc(-c5cnc(N)nc5)cn4)CCC3)no2)[nH]n1` [Example 133, 5-(6-{1-[5-(3-methyl-1H-pyrazol-5-yl)-1,2,4-oxadiazol-3-yl]cyclobutyl}pyridin-3-yl)pyrimidin-2-amine], the IC50 in experiment [1] is 43 nM; in experiment [2], 340 nM.

Regarding `Cn1cc(-c2nc(C3(c4ccc(-c5cnc(N)nc5)cn4)CCC3)no2)cn1` [Example 134, 5-(6-{1-[5-(1-methyl-1H-pyrazol-4-yl)-1,2,4-oxadiazol-3-yl]cyclobutyl}pyridin-3-yl)pyrimidin-2-amine], the IC50 came out at 81 nM in experiment [1] and 790 nM in experiment [2].

`Cc1cc(-c2nc(C3(c4ccc(-c5cnc(N)nc5)cn4)CCOCC3)no2)n(C)n1` [Example 136, 5-(6-{4-[5-(1,3-dimethyl-1H-pyrazol-5-yl)-1,2,4-oxadiazol-3-yl]tetrahydro-2H-pyran-4-yl}pyridin-3-yl)pyrimidin-2-amine]: the IC50 is 540 nM in experiment [1] and > 5000 nM in experiment [2].

Turning to `Nc1ncc(-c2ccc(C3(c4noc(-c5cccnc5)n4)CCOCC3)nc2)cn1` [Example 137, 5-(6-{4-[5-(pyridin-3-yl)-1,2,4-oxadiazol-3-yl]tetrahydro-2H-pyran-4-yl}pyridin-3-yl)pyrimidin-2-amine], the IC50 was determined as 580 nM in experiment [1] and 3000 nM in experiment [2].

Take `Nc1ncc(-c2ccc(C3(c4noc(-c5ccncc5)n4)CCOCC3)nc2)cn1` [Example 138, 5-(6-{4-[5-(pyridin-4-yl)-1,2,4-oxadiazol-3-yl]tetrahydro-2H-pyran-4-yl}pyridin-3-yl)pyrimidin-2-amine]: the IC50 in experiment [1] was 970 nM; in experiment [2], > 5000 nM.

`Nc1ncc(-c2ccc(C3(c4noc(-c5cnn(C6CCS(=O)(=O)C6)c5)n4)CCC3)cn2)cn1` (centres unmarked) [Example 139, 5-[5-(1-{5-[1-(1,1-dioxidotetrahydrothiophen-3-yl)-1H-pyrazol-4-yl]-1,2,4-oxadiazol-3-yl}cyclobutyl)pyridin-2-yl]pyrimidin-2-amine]: the IC50 worked out at 28 nM in experiment [1] and 340 nM in experiment [2].

For the molecule `Nc1ncc(-c2ccc(C3(c4noc(-c5cnn(CCN6CCOCC6)c5)n4)CCC3)cn2)cn1` [Example 140, 5-{5-[1-(5-{1-[2-(morpholin-4-yl)ethyl]-1H-pyrazol-4-yl}-1,2,4-oxadiazol-3-yl)cyclobutyl]pyridin-2-yl}pyrimidin-2-amine], the IC50 amounted to 15 nM in experiment [1] and 110 nM in experiment [2].

As to `N#CCn1cc(-c2nc(C3(c4ccc(-c5cnc(N)nc5)nc4)CCC3)no2)cn1` [Example 141, [4-(3-{1-[6-(2-aminopyrimidin-5-yl)pyridin-3-yl]cyclobutyl}-1,2,4-oxadiazol-5-yl)-1H-pyrazol-1-yl]acetonitrile], the IC50 in experiment [1] was 11 nM; in experiment [2], 85 nM.

Consider `CN(C)CCn1cc(-c2nc(C3(c4ccc(-c5cnc(N)nc5)nc4)CCC3)no2)cn1` [Example 142, 5-{5-[1-(5-{1-[2-(dimethylamino)ethyl]-1H-pyrazol-4-yl}-1,2,4-oxadiazol-3-yl)cyclobutyl]pyridin-2-yl}pyrimidin-2-amine], for which the IC50 was 16 nM in experiment [1] and 250 nM in experiment [2].

For `CN(C(=O)Cn1cc(-c2nc(C3(c4ccc(-c5cnc(N)nc5)nc4)CCC3)no2)cn1)C(C)(C)C` [Example 143, 2-[4-(3-{1-[6-(2-aminopyrimidin-5-yl)pyridin-3-yl]cyclobutyl}-1,2,4-oxadiazol-5-yl)-1H-pyrazol-1-yl]-N-tert-butyl-N-methylacetamide], the IC50 in experiment [1] came to 14 nM; in experiment [2], 260 nM.

`Nc1cnc(-c2ccc(C3(c4noc(-c5cnn(C6COC6)c5)n4)CCC3)cn2)cn1` [Example 145]: the IC50 in experiment [1] turned out to be 8.3 nM; in experiment [2], 29 nM.

For the molecule `CC(C)(O)Cn1cc(-c2nc(C3(c4ccc(-c5cnc(N)cn5)nc4)CCC3)no2)cn1` [Example 146, 1-[4-(3-{1-[6-(5-amino-pyrazin-2-yl)-pyridin-3-yl]-cyclobutyl}-[1,2,4]oxadiazol-5-yl)-pyrazol-1-yl]-2-methyl-propan-2-ol], the IC50 came out at 15 nM in experiment [1] and 43 nM in experiment [2].

For `CC(C)(Cn1cc(-c2nc(C3(c4ccc(-c5cnc(N)nc5)nc4)CCC3)no2)cn1)C(N)=O` [Example 147, 3-[4-(3-{1-[6-(2-amino-pyrimidin-5-yl)-pyridin-3-yl]-cyclobutyl}-[1,2,4]oxadiazol-5-yl)-pyrazol-1-yl]-2,2-dimethyl-propionamide], the IC50 in experiment [1] came to 65 nM; in experiment [2], 340 nM.

Take `CC(C)(C#N)Cn1cc(-c2nc(C3(c4ccc(-c5cnc(N)nc5)nc4)CCC3)no2)cn1` [Example 148, 3-[4-(3-{1-[6-(2-amino-pyrimidin-5-yl)-pyridin-3-yl]-cyclobutyl}-[1,2,4]oxadiazol-5-yl)-pyrazol-1-yl]-2,2-dimethyl-propionitrile]: the IC50 in experiment [1] worked out at 25 nM; in experiment [2] it was 200 nM.

As to `CC(C)(C(N)=O)n1cc(-c2nc(C3(c4ccc(-c5cnc(N)nc5)nc4)CCC3)no2)cn1` [Example 149, 2-[4-(3-{1-[6-(2-amino-pyrimidin-5-yl)-pyridin-3-yl]-cyclobutyl}-[1,2,4]oxadiazol-5-yl)-pyrazol-1-yl]-isobutyramide], the IC50 in experiment [1] came out at 160 nM; in experiment [2] it was 430 nM.

As for `CC(C)(N)Cn1cc(-c2nc(C3(c4ccc(-c5cnc(N)nc5)nc4)CCC3)no2)cn1` [Example 150, 5-[5-(1-{5-[1-(2-amino-2-methyl-propyl)-1H-pyrazol-4-yl]-[1,2,4]oxadiazol-3-yl}-cyclobutyl)-pyridin-2-yl]-pyrimidin-2-ylamine], the IC50 in experiment [1] was 68 nM; in experiment [2], 370 nM.

In the case of `CC(C)(C#N)n1cc(-c2nc(C3(c4ccc(-c5cnc(N)nc5)nc4)CCC3)no2)cn1` [Example 151, 2-[4-(3-{1-[6-(2-amino-pyrimidin-5-yl)-pyridin-3-yl]-cyclobutyl}-[1,2,4]oxadiazol-5-yl)-pyrazol-1-yl]-2-methyl-propionitrile], the IC50 in experiment [1] was found to be 18 nM; in experiment [2], 94 nM.

The values are drawn from patent US8575201B2 (Boehringer Ingelheim International GmbH, priority 2010, dated 2013).
